“Also recorded” adds a separate entry of the source. Where two headings read alike, the source gives them in different places. Where a SMILES comes first, the peptide text is derived from it. The star is where a group is joined. Cbz = O=C(OCc1ccccc1)*

Assay [1] deals with Akt, MAPK, GSK3-β, snail, slug, KLF4 in SK-BR-3 cells. In words: Western blot of erbB downstream signaling and Snail/Slug, SK-BR-3. The class given is cell-based, human. Background: A western blot detects proteins with antibodies after separation by electrophoresis.
The subject of assay [2] is Akt, MAPK, snail in MDA-MB-453 cells. In words: Western blot of signaling and snail, MDA-MB-453. Format: cell-based. The note with it: 24 hours (FIG. 20B).
The next assay deals with BT-474 cells. The assay can be described thus: MTT cell viability assay, BT-474. The class given is cell-based. As to conditions: FIG. 43, FIG. 48. Background: Tetrazolium dyes change colour on reduction, which living cells bring about.
The next assay has as its system H2N113 tumors. The class given is in vivo.
The next assay has as its system SK-BR-3 cells. The assay can be described thus: Soft agar growth (foci formation) assay, SK-BR-3. The class given is cell-based, human. As to conditions: 14 days in soft agar, ImageJ.
The test system of the next assay is MCF10A cells. In words: MTT cell viability assay, MCF10A. The note with it: 8 days. The class given is cell-based.
The subject of a further assay is MDA-MB-231 cells. In words: MTT cell viability assay, MDA-MB-231. Format: cell-based. The note with it: FIG. 43 / FIG. 55C.
A further assay relates to H2N113 (IFNγR KD) tumors. In words: Implanted H2N113 (IFNγR KD) tumor growth in MMTV-neu mice. The class given is in vivo, mouse. As to conditions: suboptimal 7.16.4 1.5 mg/kg; IFN-γ 5×10^5 IU/kg (FIG. 33).
Assay [3] deals with class I and class II MHC antigens in SKBR3 cells. The assay can be described thus: MHC expression in SKBR3 cells by FACS. The note with it: FIG. 4. The class given is cell-based, human.
Another assay relates to MDSC. In words: In vitro MDSC migration assay (Transwell, H2N113 conditioned medium). The class given is cell-based, mouse. The note with it: H2N113 treated 3 days (FIG. 9).
The test system of the next assay is H2N113 cells. In words: Cytotoxicity assay of spleen CD8+ T cells from treated mice. The class given is in vivo, mouse. As to conditions: suboptimal mAb and IFN-γ (FIG. 52).
The next assay relates to PD-L1. In words: PD-L1 expression in treated tumors. Format: in vivo, mouse. The note with it: FIG. 60A. As for the experimental part:
FIG. 60A-FIG. 60C. PD-L1 expression is increased in tumors treated with IFN-γ. FIG. 60A—Western blotting was performed with anti-PD-L1 antibody with the tumors from each indicated group of mice after treatment in the same way as FIG. 59A. FIG. 60B—FACS analysis of PD-L1 expression in tumor cells from control IgG and 7.16.4+IFN-γ treated mice. Tumor cells are gated as CD45-large size cells which we confirmed most of them are tumor cells by 7.16.4 antibody. **P<0.02. FIG. 60C—Administration of anti-PD-L1 antibody with the ordered therapy. Mice were treated with control PBS, 7.16.4 (1.5 mg/kg, three times per week) and anti-PDL1 (5 mg/kg, twice per week), 7.16.4 and IFN-γ ([…], three times per week), or the combination of IFN-γ, 7.16.4 and anti-PD-L1. Data represent mean+SEM.
This is also consistent with why IFN-γ alone is not useful for cancer therapy (Zaidi and Merlino, 2011). […] It is possible that PD-L1 acts as a negative immune regulator induced by IFN-γ treatment alone. […] To determine if PD-L1 can be further targeted for this ordered therapy, we used anti-PD-L1 antibody along with 7.16.4 and IFN-γ.

In a further assay the test system is H2N113 (IFNγR KD) cells. In words: IFN-γ response of H2N113 (IFNγR KD) cells in vitro. Format: cell-based, mouse.
The mark [4] stands for this setting: inhibitor added during final 8 hours of two-day 4D5 and IFN-γ treatment.

For `CS(=O)(=O)CCNCc1ccc(-c2ccc3ncnc(Nc4ccc(OCc5cccc(F)c5)c(Cl)c4)c3c2)o1` [lapatinib, Lapatinib], the Akt pathway activity entry in [1] (24 hours (FIG. 20A, 20B)) is “inactivated; also recorded: diminished Akt activity in both cell lines”. Moreover, in assay [1] (Western blot), the slug protein level entry is “not slug” and the snail protein level entry is listed as “dose-dependent reduction in snail”. Besides, in [2], the Akt activity entry is reported as “diminished Akt activity in both cell lines” and the snail protein level entry is listed as “snail is reduced upon lapatinib treatment”.
Turning to `O.O=C(O)C(F)(F)F.O=c1[nH]c2ccccc2n1C1CCN(Cc2ccc(-c3nc4cc5[nH]cnc5cc4nc3-c3ccccc3)cc2)CC1` [Akt1/2 inhibitor], in assay [1] (Western blot), the snail protein level entry was “dose-dependent decrease in snail content”.
As for `CC(C)C[C@@H](C=O)NC(=O)[C@H](CC(C)C)NC(=O)[C@H](CC(C)C)NC(=O)OCc1ccccc1` [MG-132] (Cbz-Leu-Leu-Leu-aldehyde), in assay [1] (setting [4]), the “slug content under 4D5 and IFN-γ co-treatment” value is “no change in slug content”; the “snail content under 4D5 and IFN-γ co-treatment” value (from here on “snail content”) is on record as “inhibited the co-treatment-mediated reduction of snail in a dose-dependent manner”.
`CC/C(=C(\c1ccc(O)cc1)c1ccc(OCCN(C)C)cc1)c1ccccc1` [4-OH tamoxifen]: the cell viability result with BT-474 cells is reported as “reduced viability in the cIgG-treated cells; also recorded: complemented 4D5 treatment; also recorded: did not further sensitize the cells to IFN-γ in combination with 4D5”.
For the molecule `CCN(CC)CCCC(C)Nc1ccnc2cc(Cl)ccc12` (stereo not shown) [chloroquine], in assay [1], the “snail content” value is given as “increased snail content but was unable to rescue”.
Regarding `Cc1c[nH]c(-c2cnc(NCCNc3ccc(C#N)cn3)nc2-c2ccc(Cl)cc2Cl)n1` [CHIR99021], in [1] (setting [4]), the “slug content under 4D5 and IFN-γ co-treatment” value is given as “no change in slug content”; the “snail content” value is recorded as “dose-dependent rescue of snail”.
In the case of IFNα, the “anti-tumor activity of IFNα on its own” value in the assay with H2N113 tumors (FIG. 7) is recorded as “appears to have anti-tumor activity on its own”. Moreover, the “enhancement of mAb 7.16.4 activity to suppress tumor growth” value in the assay on H2N113 tumors (IFNα in combination with mAb 7.16.4 (FIG. 7)) is “could not enhance mAb 7.16.4 activity”.

B1: IFN-γ: recombinant interferon-gamma (SEQ ID NO: 5) (protein)
chain: QDPYVKEAENLKKYFNAGHSDVADNGTLFLGILKNWKEESDRKIMQSQIVSFYFKLFKNFKDDQSIQKSVETIKEDMNVKFFNSNKKKRDDFEKLTNYSVTDLNVQRKAIHELIQVMAELSPAAKTGKRKRSQ
modifications: IFN-gamma
In the case of B1, the “percentage of foci greater than 20 pixels” value in the assay with SK-BR-3 cells is recorded as 52±8%. Moreover, the “percentage of foci less than 20 pixels” value in the assay with SK-BR-3 cells turned out to be 48±8%. Also, the cell viability result with MCF10A cells is “minimal changes to their viability”; with MDA-MB-231 cells it was “did respond to IFN-γ alone”. Also, the GSK3-β activation result in [1] (Western blot (FIG. 21A)) is “unable to do so”. For the same molecule, the tumor volumes result in the assay with H2N113 tumors (BALB/c mice, 7.16.4 1.5 mg/kg, IFN-γ 5×10^5 IU/kg (FIG. 26)) was “demonstrable effect”. In addition, the tumor growth result with H2N113 tumors (MMTV-neu mice, 7.16.4 1.5 mg/kg twice per week, IFN-γ 5×10^5 IU/kg three times per week (FIG. 1), 1.5 mg/kg) was “aggressive tumor growth; also recorded: failed to significantly inhibit tumor growth”; in the assay on H2N113 (IFNγR KD) tumors, “no effect on its own”. Moreover, the “class II MHC antigen expression” value in [3] is given as “no effect”. Besides, the “MDSC migration induced by H2N113 conditioned medium” value with MDSC was “no appreciable effects”. In the assay on H2N113 cells, the “effector CD8+ T cell activity against H2N113 cells” value is given as “negligible effects”. Further, in the assay on PD-L1, the “PD-L1 expression in tumor tissues” value is listed as “dramatically induced PD-L1 expression”. In addition, the “IFN-γ mediated growth suppression” value with H2N113 (IFNγR KD) cells (5 days, LDH activity (FIG. 32C)) was “resistant to IFN-γ mediated growth suppression”. The “IFN-γ induced MHC expression” value in the assay with H2N113 (IFNγR KD) cells (FIG. 32B) is given as “diminished”.

(Values after patent publication US11446516B2, “Methods of increasing response to cancer radiation therapy” (THE TRUSTEES OF THE UNIVERSITY OF PENNSYLVANIA, priority 2013, dated 2022).)
